Laboratory results published in patent US20040037774A1, “Carrier for carrying radioactive substances and methods for using the same” (priority 2002, published 2004).

What was measured:
[1] = test system: human neuroblastoma cells (tumor cells); test: Affinity test on R-phycoerythrin for tumor cells (fluorescent microscopy); type: cell-based; conditions: 10, 20, 40 μg/ml R-phycoerythrin, 24-hour incubation, FIG. 4B-4D
Procedure: (§1) R-phycoerythrin is complete dialyzed with 150 mM sodium phosphate buffer, and then serial dilution is carried out by using MEM medium as diluent to obtain the R-phycoerythrin dilutions of concentrations between 1-100 μg/ml.
(§2) The tumor cells are human neuroblastoma cells, and normal cells for comparison are human fibroblast cells. First, cells are maintained in MEM medium (pH 7.4) supplemented with 10% fetal bovine serum, and incubate at 37° C. and 95% humidity. Replace the MEM medium every two days. When carrying out cell subculture, first remove the medium, and rinse the cells once with sodium phosphate buffer. Then add 0.25% trypsin-EDTA to detach the cells from the surface of petri dish, and stop the reaction of trypsin-EDTA by giving proper amount of foregoing MEM medium, and thus the cell suspension is obtained. Secondly, seed 100,000 to 400,000 cells onto cover slips placed in a 12-well culture plate and incubate at 37° C. and 95% humidity for 16 hours.
(§3) Following is the affinity test on R-phycoerythrin for human fibroblast cells (normal cells) and human neuroblastoma cells (tumor cells). Take the 12-well culture plate with cells growing on cover slips mentioned in step 2. Remove the medium and rinse the cells once with sodium phosphate buffer. Add 1 mL of R-phycoerythrin dilutions mentioned in step 1 to the cells and follow with incubation at 37° C. and 95% humidity. […]

[2] = test system: human fibroblast cells (normal cells); test: Affinity test on R-phycoerythrin for normal cells (fluorescent microscopy); type: cell-based; conditions: 10, 20, 40 μg/ml R-phycoerythrin, 24-hour incubation, FIG. 3B-3D
Procedure: as §1, §2, §3

R-phycoerythrin
strength of fluorescence signal in cells (accumulation of R-phycoerythrin) [1]: in accordance with the increasing amount of R-phycoerythrin
fluorescent signal in cells (accumulation of R-phycoerythrin) [2]: no fluorescent signal is observed
